Assay results from US20060069132A1, “Azolecarboxamide herbicides” (priority 2004, published 2006).

Columns and labels:
[1] = test system: Surinam grass; assay: Test C pre-/postemergence herbicide test; type: in vivo, Urochloa decumbens
Summary of the method: (§1)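 Visual ratings on a 0–100 scale (100 = complete control) made versus untreated controls after 12 to 14 greenhouse days. Test chemicals, formulated in surfactant-containing non-phytotoxic solvent, applied preemergence to planted seeds or postemergence to 1- to 4-leaf plants (2 to 18 cm).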

[2] = test system: Surinam grass; assay: Test B pre-/postemergence herbicide test; type: in vivo, Urochloa decumbens
Summary of the method: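 Visual rating, 0 (no effect) to 100 (complete control), versus untreated controls after 13–15 d in greenhouse. Pre- and postemergence applications (postemergence plants 2–18 cm, 1–4 leaves); flooded paddy arm at 2-leaf stage. Compounds in non-phytotoxic solvent plus surfactant.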

[3] = test system: goosegrass; assay: Test C pre-/postemergence herbicide test; type: in vivo, Eleusine indica
Summary of the method: as §1

[4] = test system: eastern black nightshade; assay: Test C pre-/postemergence herbicide test; type: in vivo, Solanum ptycanthum; conditions: preemergence
Source text: Seeds of plant species selected from bermudagrass (Cynodon dactylon (L.) Pers.), Surinam grass (Urochloa decumbens (Staph) R. D. Webster, previously named Brachiaria decumbens Stapf), cocklebur (Xanthium strumarium L.), corn (Zea mays L.), large crabgrass (Digitaria sanguinalis (L.) Scop.), woolly cupgrass (Eriochloa villosa (Thunb.) Kunth), giant foxtail (Setaria faberi Herrm.), goosegrass (Eleusine indica (L.) Gaertn.), johnsongrass (Sorghum halepense (L.) Pers.), kochia (Kochia scoparia (L.) Schrad.), lambsquarters (Chenopodium album L.), morningglory (Ipomoea coccinea L.), eastern black nightshade (Solanum ptycanthum Dunal), yellow nutsedge (Cyperus esculentus L.), pigweed (Amaranthus retroflexus L.), common ragweed (Ambrosia elatior L.), soybean (Glycine max (L.) Merr.), common (oilseed) sunflower (Helianthus annuus L.) and velvetleaf (Abutilon theophrasti Medik.) were planted and treated preemergence with test chemicals formulated in a non-phytotoxic solvent mixture which included a surfactant.
At the same time, plants selected from these crop and weed species and also winter barley (Hordeum vulgare L.), blackgrass (Alopecurus myosuroides Huds.), canarygrass (Phalaris minor Retz.), chickweed (Stellaria media (L.) Vill.), downy bromegrass (Bromus tectorum L.), green foxtail (Setaria viridis (L.) Beauv.), Italian ryegrass (Lolium multiflorum Lam.), wheat (Triticum aestivum L.), wild oat (Avenafatua L.) and windgrass (Apera spica-venti (L.) Beauv.) were treated with postemergence applications of some of the test chemicals formulated in the same manner. Plants ranged in height from 2 to 18 cm (1- to 4-leaf stage) for postemergence treatments. Plant species in the flooded paddy test consisted of rice (Oryza sativa), smallflower umbrella sedge (Cyperus difformis L.), ducksalad (Heteranthera limosa (Sw.) Willd.) and barnyardgrass (Echinochloa crus-galli (L.) Beauv.) grown to the 2-leaf stage for testing. Treated plants and controls were maintained in a greenhouse for 12 to 14 days, after which time all species were compared to controls and visually evaluated. Plant response ratings, summarized in Table C, are based on a scale of 0 to 100 where 0 is no effect and 100 is complete control. A dash (-) response means no test result.

[5] = test system: wheat; assay: Test B postemergence herbicide test; type: in vivo, Triticum aestivum; parameters: key to Wheat plant response rating: 0 = no effect, 100 = complete control
Summary of the method: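 After treating 2-leaf paddy plants or 2–18 cm postemergence plants (1 to 4 leaves) with formulated chemical, researchers kept them in a greenhouse for 13–15 days. Effects were judged visually versus controls: 0 indicates none, 100 total control.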

[6] = test system: common ragweed; assay: Test C pre-/postemergence herbicide test; type: in vivo, Ambrosia elatior; parameters: key to Plant response rating, Ragweed: 0 = no effect, 100 = complete control
Summary of the method: as §1

[7] = test system: morningglory; assay: Test A pre-/postemergence herbicide test; type: in vivo, Ipomoea spp.
Summary of the method: (§2)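 Visual injury scores on a 0–100 scale (100 = complete control) taken about ten days post-treatment in greenhouse against untreated controls; dash means no result. Treatments: preemergence soil spray and postemergence spray to runoff on one- to two-leaf plants 2 to 10 cm tall, surfactant-containing formulation.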

[8] = test system: redroot pigweed; assay: Test A pre-/postemergence herbicide test; type: in vivo, Amaranthus retroflexus
Summary of the method: as §2

[9] = 62 g ai/ha, preemergence, scale 0 to 100
[10] = 250 g ai/ha, scale 0-100, preemergence
[11] = 500 g ai/ha, scale 0 to 100 (0 no effect, 100 complete control), visual, 12 to 14 days, preemergence
[12] = 125 g ai/ha; 0 = no effect, 100 = complete control; preemergence
[13] = 125 g ai/ha; visual rating, scale 0 (no effect) to 100 (complete control); postemergence
[14] = 500 g ai/ha; visual rating, 0 = no effect, 100 = complete control; preemergence
[15] = postemergence, 500 g ai/ha; scale 0 to 100, 0 is no effect, 100 is complete control
[16] = Postemergence, 500 g ai/ha, 0 to 100 scale, 0 no effect, 100 complete control
[17] = Postemergence, 2000 g ai/ha, 0 to 100 scale, 0 no effect, 100 complete control
[18] = Preemergence, 500 g ai/ha, visual rating, 0 to 100 scale (0 no effect, 100 complete control)
[19] = Preemergence, 2000 g ai/ha, 0 to 100 scale, 0 no effect, 100 complete control
[20] = Postemergence, 500 g ai/ha, scale 0 to 100
[21] = Postemergence, 250 g ai/ha, scale 0 to 100, 0 no effect, 100 complete control
[22] = postemergence, 125 g ai/ha, scale 0 to 100
[23] = postemergence, 62 g ai/ha, scale 0 to 100
[24] = Postemergence, 500 g ai/ha; visual rating after 13 to 15 days, scale 0 (no effect) to 100 (complete control)
[25] = postemergence, 125 g ai/ha; visual rating, scale 0 (no effect) to 100 (complete control)
[26] = preemergence, 125 g ai/ha; 0 to 100 scale, 0 is no effect, 100 is complete control
[27] = Preemergence, 2000 g ai/ha, visual rating, 0 to 100 scale (0 no effect, 100 complete control)
[28] = preemergence, 500 g ai/ha, visual injury, 0 to 100 scale (0 no effect, 100 complete control)

Compound	Morningglory plant response rating [7, 16]	Plant response rating, Morningglory [7, 17]	Morningglory plant response rating [7, 18]	Pigweed plant response rating [8, 16]	Plant response rating, Pigweed [8, 17]	Pigweed plant response rating [8, 18]	Surinam Grass plant response rating [1, 20]	Plant response rating, Surinam Grass [1, 21]	Plant response rating, Surinam Grass [1, 22]	Plant response rating, Surinam Grass [1, 23]	Surinam Grass plant response rating [2, 25]	Goosegrass plant response rating [3, 20]	Plant response rating, Goosegrass [3, 21]	Plant response rating, Goosegrass [3, 22]	Plant response rating, Goosegrass [3, 23]	Wheat plant response rating [5, 25]	Ragweed plant response rating [6, 20]	Plant response rating, Ragweed [6, 21]	Plant response rating, Ragweed [6, 22]	Plant response rating, Ragweed [6, 23]	further results
CCN1N=C(C(C)(C)C)CC1C(=O)Nc1cc(C(=O)N2CCCC2)ccc1F (racemic) [Compound 309]																					Plant response rating, Surinam Grass [1, 9]: 50; Plant response rating, Surinam Grass [1, 10]: 90; Plant response rating, Surinam Grass [1, 11]: 100; Surinam Grass plant response rating (0 to 100 scale) [2, 12]: 60; Surinam Grass plant response rating [2, 13]: 10; Plant response rating, Surinam Grass [2, 14]: 100; Surinam Grass plant response rating [2, 15]: 40; Plant response rating, Goosegrass [3, 9]: 85; Plant response rating, Goosegrass ([3]; 125 g ai/ha, scale 0 (no effect) to 100 (complete control), visual, 12 to 14 days, preemergence): 85; Plant response rating, Goosegrass [3, 10]: 100; Plant response rating, Goosegrass [3, 11]: 100; Plant response rating, Nightshade ([4]; 62 g ai/ha, scale 0 to 100): 70; Plant response rating, Nightshade ([4]; 125 g ai/ha, scale 0 (no effect) to 100 (complete control), visual, 12 to 14 days): 80; Plant response rating, Nightshade ([4]; 250 g ai/ha, scale 0-100): 100; Plant response rating, Nightshade ([4]; 500 g ai/ha, scale 0 to 100 (0 no effect, 100 complete control), visual, 12 to 14 days): 100; Wheat plant response rating [5, 13]: 20; Wheat plant response rating [5, 15]: 30; Plant response rating, Ragweed [6, 9]: 50; Plant response rating, Ragweed [6, 10]: 70; Plant response rating, Ragweed [6, 11]: 100
C#CCOC(=O)c1cccc(NC(=O)c2cc(C(C)(C)C)nn2CC)c1 [Compound 84]	5	10	0	50	45	0	10	0	0	0	50	10	5	0	0	20	0	0	0	0	Pigweed plant response rating [8, 19]: 0; Plant response rating, Surinam Grass [2, 24]: 60; Plant response rating, Surinam Grass [2, 26]: 0; Plant response rating, Wheat [5, 24]: 30
C=CCOC(=O)c1cccc(NC(=O)c2cc(C(C)(C)C)nn2CC)c1 [Compound 85]	20	25	0	75	70	0	80	80	30	25	60	60	60	40	35	50	60	40	10	10	Morningglory plant response rating [7, 19]: 5; Pigweed plant response rating [8, 19]: 5; Plant response rating, Surinam Grass [2, 24]: 70; Plant response rating, Surinam Grass [2, 26]: 0; Plant response rating, Wheat [5, 24]: 60
CC(=NO)c1cccc(NC(=O)c2cc(C(C)(C)C)nn2CC(F)(F)F)c1 [Compound 112]	20	15	20	40	60	65	60	40	40	20	20	30	30	20	20	20	70	70	0	0	Morningglory plant response rating [7, 27]: 45; Pigweed plant response rating [8, 27]: 90; Plant response rating, Surinam Grass ([2]; 500 g ai/ha; visual rating 0-100, 0 no effect, 100 complete control; preemergence): 20; Plant response rating, Surinam Grass [2, 24]: 20; Plant response rating, Surinam Grass [2, 26]: 20; Plant response rating, Wheat [5, 24]: 30
CCn1nc(C(C)(C)C)cc1C(=O)Nc1cccc(OC(F)(F)F)c1 [Compound 272]	100	100		100	100		60	35	10	5	10	80	75	65	20	20	95	80	65	60	Morningglory plant response rating [7, 27]: 55; Morningglory plant response rating [7, 28]: 20; Pigweed plant response rating [8, 27]: 100; Pigweed plant response rating [8, 28]: 100; Surinam Grass plant response rating (0 to 100 scale) [2, 12]: 10; Plant response rating, Surinam Grass [2, 14]: 70; Surinam Grass plant response rating [2, 15]: 60; Wheat plant response rating [5, 15]: 30
